Test results published in patent US11566233B2, “Three-dimensional in vitro lung model, process for preparing said model, and its use for determining and /or predicting the sensitizing effects of inhalable products” (LUXEMBOURG INSTITUTE OF SCIENCE AND TECHNOLOGY, priority 2016, dated 2023).
Where two headings read alike, the source gives them in different places.

Assays:
[1] = test system: tetraculture in vitro lung model; assay: Cytokines released in the tetraculture in vitro lung model; assay type: cell-based, human; design: key: ?: indicates a decrease of cytokine release compared to the vehicle control; ?: indicates an increase of cytokine release compared to the vehicle control; =: indicates no change observed between exposure and the vehicle control; ?: indicates a decrease of cytokine release compared to the vehicle control; ?: indicates an increase of cytokine release compared to the vehicle control
Protocol: (§1) To measure the expression of cell surface markers and the release of different cytokines, the cells of inserts prepared according to example 1 above were exposed to the CV75 or, when it was not possible to reach 75% of viability, cells were exposed to the maximum of solubility of the compounds.
(§2) After 24 h and 48 h, THP-1 cells were recovered, stained and analysed using a flow cytometer according to the protocol detailed in example 2 above. Supernatants were recovered for cytokines measurements.
Table 2 below gives a summary of the results obtained for all cytokines measured, wherein, ? indicates a decrease of cytokine release compared to the vehicle control, ? indicates an increase of cytokine release compared to the vehicle control and =indicates no change observed between exposure and the vehicle control: […]

[2] = test system: THP-1 cells in monoculture; assay: Viability of THP-1 cells in monoculture in submerged conditions; assay type: cell-based, human; details: 24 h exposure, up to maximum of solubility in medium containing 0.2% of DMSO
Protocol: (§3) FIGS. 11A and 11B are diagrams showing viability of THP-1 cells after 24 h exposure to PA (FIG. 11A) and TMA (FIG. 11B) in monoculture in submerged conditions. In this figure, the highest tested concentrations represent the maximum of solubility of the compounds in medium containing 0.2% of DMSO.

[3] = test system: tetraculture lung model (A549, EA.hy926, THP-1, Mϕ-THP-1); assay: Alamar Blue viability of the tetraculture lung model after Vitrocell Cloud exposure at the air-liquid interface; details: 24 h and 48 h after exposure
Protocol: (§4) Example of exposure of the inserts is performed in a Vitrocell® Cloud device (Waldkirch, Germany), previously cleaned under sterile conditions, and maintained at 37° C. The inserts are placed into the device. A cloud, from 200 to 500 μL of the product to be tested) is then distributed homogenously inside the chamber and starts to settle on the surface. After about 10 to 30 minutes (depending on the injected product), the cloud is settled by single droplet sedimentation. The concentration which is deposited on the insert can be calculated in g/cm^2.
(§5) Inserts prepared according to example 1 were exposed to chemical compounds and to positive controls using the Vitrocell® Cloud system (Vitrocell, Waldkirch, Germany). All compounds were diluted in a 1/1(v/v) solution of sterile saline solution and PBS.
(§6) Inserts were exposed to a range of concentrations to chemical respiratory irritants and sensitizers in order to determine first the viability of the tissue using the Alamar Blue assay. […] Upon entering cells, resazurin is reduced to pink highly fluorescent resorufin. Viable cells continuously convert resazurin to resorufin. The fluorescence is proportional to cell viability.
(§7) Following 24 h and 48 h exposure to the compounds through the Vitrocell cloud, cells were incubated for 1 hour to 400 μM of Alamar Blue diluted in Coculture 1% medium.
(§8) Viability was assessed using the Alamar Blue assay 24 h and 48 h after exposure according to the protocol detailed in example 2 above.
(§9) The concentration leading to 25% of cytotoxicity (meaning 75% of viability: CV75) relatively compared to the vehicle control was determined using the graphs presented in example 2.

[4] = test system: THP-1 cells in the tetraculture lung model; assay: Flow cytometry of cell surface marker expression on THP-1 cells in the tetraculture lung model; assay type: cell-based, human; details: 24 h exposure, compared to control
Protocol: 24 h and 48 h after exposure to the Vitrocell Cloud, THP-1 DC were recovered in the medium in the well. After centrifugation for 5 minutes at 300 g, cells were washed with PBS and staining was performed using antibodies listed in table 1 below (following the manufacturer's recommended dilutions) and the corresponding isotype control to determine the unspecific binding of the antibody and ensure the observed staining is due to specific binding rather than an artifact.
Relative Fluorescence Intensity (RFI) was used as an indicator of OX40L, IL7ra, CD40 and CD86 and CD54 expression and was calculated by the following formula I: […]
as §1, §2

[5] = Solubility in medium containing 0.2% of DMSO; assay type: physicochemical
Protocol: as §3

[6] = test system: THP-1 cells in monoculture; assay: Cell surface marker expression on THP-1 cells in monoculture, submerged conditions (h-CLAT reproduction); assay type: cell-based, human; details: 24 h exposure
Source text: In parallel, THP-1 cells were exposed in submerged conditions in monoculture in order to reproduce the data obtained using the h-CLAT (human cell line activation test) assay. The h-CLAT assay is based on the property of chemicals to activate dendritic cells, property which is common to both skin and respiratory sensitizers. The h-CLAT is an in vitro model validated at the European level (ECVAM validation).
On a comparative purpose, the expression of CD86 and CD54 cell surface markers were also evaluated in the h-CLAT. It is currently recommended to use the h-CLAT to assess the skin sensitizing potential of chemicals. As skin and lung share the DC activation property, h-CLAT may be considered to be used to assess also the respiratory sensitizing potential of chemicals. To remind, there is no validated models to assess respiratory sensitization available on the market yet.
As different antibodies, fluorochromes and equipment were used to measure the CDs expression, threshold level obtained in literature on the h-CLAT could not be compared to those measured in this example.

[7] = test system: tetraculture lung model (A549, EA.hy926, THP-1, Mϕ-THP-1)
Protocol: as §4, §5, §6, §7, §8, §9

Molecule | IL-7 release compared to the vehicle control ([1]; 24 h) | MCP-1 release compared to the vehicle control ([1]; 24 h) | IL-7 release compared to the vehicle control ([1]; 48 h) | cytotoxicity of THP-1 cells [2] | cell viability of the alveolar tissue model (in words) [3] | expression of cell surface marker CD54 on THP-1 cells [4] | expression of cell surface marker CD86 on THP-1 cells [4] | solubility [5] | RANTES release compared to the vehicle control ([1]; 24 h) | MCP-1 release compared to the vehicle control ([1]; 48 h) | expression of cell surface marker IL7ra on THP-1 cells [4] | expression of CD54 on THP-1 cells [6] | IL-10 release compared to the vehicle control ([1]; 48 h) | expression of CD86 on THP-1 cells [6] | cell viability of the alveolar tissue model (in words) [7]
O=C1OC(=O)c2ccccc21 [PA, Phthalic Anhydrid] | = | = | = | not possible to reach any cytotoxity | decrease in viability | Increases | Increases | low solubility |  |  |  |  |  |  | 
C=CC=O [Acrolein] |  |  |  |  |  | no increase | no increase |  | = | = | decrease | increase |  |  | 
O=C(O)c1ccc2c(c1)C(=O)OC2=O [TMA, Trimellitic Anhydride] | = | = | = | not possible to reach any cytotoxity | decrease in viability | Increases | Increases | low solubility |  | = |  |  | = | lower than the vehicle control | 
Bet v1: additional known protein sensitizer; important protein allergen of pollen (protein, UniProt P15494 2-160, looked up) Major pollen allergen Bet v …: GVFNYETETTSVIPAARLFKAFILDGDNLFPKVAPQAISSVENIEGNGGPGTIKKISFPEGFPFKYVKDRVDEVDHTNFKYNYSVIEGGPIGDTLEKISNEIKIVATPDGGSILKISNKYHTKGDHEVKAEQVKASKEMGETLLRAVESYLLAHSDAYN |  |  |  |  |  |  |  |  |  |  |  |  |  |  | No effect
